Assay type in all cases: cell-based, human
The test system of test [1] is HeLa cell line that continuously produces the Otx2 homeoprotein. The test is described as follows: Dot blot analysis of Otx2 protein secreted into cell culture solution. The note with it: FIG. 2C. On the procedure: In order to detect a homeoprotein secreted to the outside of the cell, a cell culture solution including sodium heparin was allowed to pass through a polyvinylidene difluoride (PVDF) membrane. Next, the membrane was treated with a blocking solution (TBST including 5% skim milk) and allowed to react at room temperature for 1 hour. Subsequently, the membrane was treated with a blocking solution including a primary antibody, allowed to react at 4° C. for 16 hours, then treated with a horseradish peroxidase (HRP)-conjugated secondary antibody, and cultured at room temperature for 1 hour, and then the membrane was exposed to an X-ray photosensitive film by inducing an enzymatic reaction using an ECL solution as a substrate to thereby analyze the results.
(§1) Accordingly, the present inventors treated a HeLa cell line that continuously produces the Otx2 homeoprotein manufactured in Example 2 with a V-ATPase inhibitor and a lysosomal pH enhancer as inhibitors of lysosomal function, and confirmed a change in secretion of the homeoprotein. The V-ATPase inhibitor is a lysosomal ion channel inhibitor, and when cells are treated with the inhibitor, the pH in the lysosome is increased, so the protein degradation by the lysosome may be suppressed because the activity of the hydrolase present in the lysosome is inhibited.
(§2) Furthermore, the level of secreted Otx2 protein and the intracellular expression level of Otx2 protein when the HeLa cells were treated with the inhibitor of lysosomal function were analyzed by a dot blot analysis and a western blot analysis.
(§3) In addition, the present inventors treated the HeLa cells with bafilomycin D (BafD) together with bafilomycin A1 (BafA1) and concanamycin A (ConA), which are types of V-ATPase inhibitors, at different concentrations, and performed an analysis in the same manner as in FIG. 2B.

Test [2] shares this test system. As to the kind of experiment: Western blot analysis of Otx2 protein in cell lysate. The note with it: for intracellular expression of the Otx2 protein: FIG. 2C; for expression level of the Otx2 protein in cell lysate: HeLa cells, western blot V5 (Otx2), FIG. 2B. The protocol: In order to detect a homeoprotein present inside the cell, cells were lysed with a RIPA lysate (tertiary distilled water including 20 mM Tris-HCl, pH 7.5, 150 mM NaCl, 1 mM Na2EDTA, 1 mM EGTA, 1% NP-40, 1% sodium deoxycholate, 2.5 mM sodium pyrophosphate, 1 mM β-glycerophosphate, 1 mM Na3VO4, and 1 μg/ml leupeptin), and then proteins in the cells were separated according to molecular weight by performing electrophoresis (SDS-PAGE) on the cell lysate on a polyacrylamide gel including sodium dodecyl sulfate. The gel was induced to electrically bind to a PVDF membrane after protein separation to transfer the proteins to the membrane.
The V-ATPase inhibitor is a lysosomal ion channel inhibitor, and when cells are treated with the inhibitor, the pH in the lysosome is increased, so the protein degradation by the lysosome may be suppressed because the activity of the hydrolase present in the lysosome is inhibited.
as §2, §3
On the technique in general: Immunoblotting shows a protein as a band on a membrane.

The test system is the same in test [3]. The test is described as follows: Immunocytochemical staining of intracellular Otx2 protein after treatment with inhibitor of lysosomal function. The note with it: HeLa cells, treated 16 hours, FIG. 2A, vehicle: almost exclusively in cell nucleus. On the procedure:
Cells were cultured on a cover glass in a cell incubator for 24 hours or more, and treated with a fixing solution (physiological saline including 4% paraformaldehyde) at room temperature for 20 minutes to fix the cells. Next, after the cells were treated with a permeability-imparting solution (physiological saline including 0.1% TWEEN-20 (polysorbate 20)) at room temperature for 10 minutes, the cells were treated with a blocking solution (physiological saline including 10% donkey serum) at room temperature for 1 hour. Subsequently, the cells were treated with a blocking solution including a primary antibody, cultured at 4° C. for 16 hours, then treated with a blocking solution 10 including a fluorophore-conjugated secondary antibody, and cultured at room temperature for 1 hour. Then, the fluorescence signals of the cells were analyzed under an Olympus FV1000 confocal microscope.
as §1
Thus, specifically, after the HeLa cells were treated with each of V-ATPase inhibitors bafilomycin A1 (BafA1) and concanamycin A (ConA), and a lysosomal pH enhancer chloroquine (CQ) at different concentrations for 16 hours, the intracellular expression of the Otx2 protein was observed by immunocytochemical staining.

The mark [4] stands for this setting: concentration increased from 20 nM to 200 nM.
Where [5] appears, read: concentration increased from 5 nM to 50 nM.

The values that follow come from patent US12091699B2, “Method for enhancing production of homeoprotein using inhibitor of lysosomal function” (Korea Advanced Institute of Science and Technology, priority 2021, dated 2024).

For the molecule bafilomycin D [BafD], the “secretion of the Otx2 protein to the outside of the cell” value (shortened to “secretion of the Otx2 protein”) in test [1] (setting [4]) is listed as “increased”. Moreover, the “intracellular expression of the Otx2 protein” value (“intracellular expression” for short) in test [2] (setting [4]) was “increased”.
Regarding `CO/C1=C\C(C)=C\[C@@H](C)[C@@H](O)[C@@H](C)C/C(C)=C/C=C/[C@H](OC)[C@@H]([C@@H](C)[C@@H](O)[C@H](C)[C@@]2(O)C[C@@H](O)[C@H](C)[C@@H](C(C)C)O2)OC1=O` [BafA1, bafilomycin A1], in test [3], the “expression pattern (intracellular position) of Otx2 protein” value (“expression pattern” for short) was “occurred even in the cytoplasm including the cell nucleus”. Besides, in test [1] (setting [4]), the “secretion of the Otx2 protein” value is on record as “increased”. Further, the “expression level of the Otx2 protein in cell lysate” value (“expression level” for short) in test [2] is “a big difference did not appear”. The “intracellular expression” value in test [2] (setting [4]) was “increased”.
For `CCN(CC)CCCC(C)Nc1ccnc2cc(Cl)ccc12` (stereo not drawn) [CQ, chloroquine], the “expression pattern” value in test [3] was “occurred even in the cytoplasm including the cell nucleus”. The “expression level” value in test [2] is listed as “expressed at a higher level”.
For the molecule `C/C=C/[C@H]1O[C@@](O)([C@@H](C)[C@H](O)[C@H](C)[C@H]2OC(=O)/C(OC)=C/C(C)=C/[C@@H](C)[C@@H](O)[C@@H](CC)[C@@H](O)[C@H](C)C/C(C)=C/C=C/[C@@H]2OC)C[C@@H](O[C@H]2C[C@@H](O)[C@H](OC(N)=O)[C@@H](C)O2)[C@@H]1C` [ConA, concanamycin A], in test [3], the “expression pattern” value is recorded as “occurred even in the cytoplasm including the cell nucleus”. Also, the “secretion of the Otx2 protein” value in test [1] (setting [5]) is recorded as “increased”. Moreover, the “expression level” value in test [2] is “expressed at a higher level”. The “intracellular expression” value in test [2] (setting [5]) was “increased”.
